Legend:
[1] = tested on: TCF/LEF luciferase reporter; assay: High-throughput screen validation, TCF/LEF luciferase reporter in osteosarcoma cell line; assay type: cell-based
Experimental: Osteosarcoma cells were plated in a 96 well plate. The cells were transiently transfected with the TCF/LEF luciferase reporter using LipofectAMINE PLUS (Invitrogen; Carlsbad, Calif.). The cells were incubated overnight at 37° C. in OptiMEM-1 serum-free medium with the transfection reagents. The cells were washed and serum-containing medium was added to the cells for 8 hours. The serum-containing medium was replaced with serum-free medium and the cells were stimulated overnight with PTH and WNT3a. Supernatant from the stimulated cells was collected for detection of osteosclerostin, and the cells were subjected to a luciferase assay as previously described (Wan et al., Am. J. Pathol. 166:1379-92 (2005)).
To determine agonists and antagonists of the additive signaling of the PTH receptor and the WNT receptor, (as well as any co-receptors) in bone cells, a high-throughput screen is designed. […] An osteosarcoma cell line is transiently transfected with a TCF/LEF luciferase reporter. The cells are treated with WNT3a and PTH and luciferase activity is determined (FIG. 46).

β-catenin = assay: Western blot of cytosolic β-catenin in HEK 293 cells; assay type: cell-based; conditions: HEK 293 cells; concentration- and time-dependent
Experimental: (§1) Cells were harvested in cavitation buffer (5 mM HEPES, pH 7.4, 3 mM MgCl2, 1 mM EGTA, 250 mM sucrose) containing protease and phosphatase inhibitors and homogenized by nitrogen cavitation (200 p.s.i., for 5 minutes) in a cell disruption bomb (Parr Instrument Co.; Moline, Ill.). The cell homogenate was centrifuged twice at 700 g for 10 minutes to pellet the nuclei. The supernatant was further centrifuged at 100,000 g (Beckman SW50.1 rotor) for 1 hour to separate the membrane and cytosol fractions, and the resulting membrane pellet was washed three times with cavitation buffer before use in the assays (Zhang et al., Biochem. J. 343:541-9 (1999)). Immunoprecipitation and Western blot analysis of cell lysates were performed as described previously (Wan et al., Am. J. Pathol. 166:1379-92 (2005)).

Xenopus = assay: LRP6-mediated secondary axis induction in Xenopus embryos; assay type: in vivo; conditions: ventral injection of PTH and PTH1R RNA with LRP6 RNA
Text: RNAs for microinjection were synthesized using SP6 mMessage mMachine in vitro transcription kit (Ambion; Austin, Tex.). […] The doses of RNAs used were: 200 pg LRP6, 2 pg PTH and 50 pg PTH1R.

axin-LRP6 binding = assay: Co-IP of axin binding to LRP6 in HEK293 cells; assay type: cell-based; conditions: co-IP, HEK293 cells
Experimental: as §1

CFP-PTH1R and YFP-LRP6 = molecular target: T1, CFP-PTH1R and YFP-LRP6 (Homo sapiens, UniProt Q03431); assay: Photobleaching-based FRET of CFP-PTH1R and YFP-LRP6 in HEK293 cells; assay type: cell-based
T1 construct: expressed in transfected cells; host or cells: HEK293
T1 sequence (Q03431 27-593): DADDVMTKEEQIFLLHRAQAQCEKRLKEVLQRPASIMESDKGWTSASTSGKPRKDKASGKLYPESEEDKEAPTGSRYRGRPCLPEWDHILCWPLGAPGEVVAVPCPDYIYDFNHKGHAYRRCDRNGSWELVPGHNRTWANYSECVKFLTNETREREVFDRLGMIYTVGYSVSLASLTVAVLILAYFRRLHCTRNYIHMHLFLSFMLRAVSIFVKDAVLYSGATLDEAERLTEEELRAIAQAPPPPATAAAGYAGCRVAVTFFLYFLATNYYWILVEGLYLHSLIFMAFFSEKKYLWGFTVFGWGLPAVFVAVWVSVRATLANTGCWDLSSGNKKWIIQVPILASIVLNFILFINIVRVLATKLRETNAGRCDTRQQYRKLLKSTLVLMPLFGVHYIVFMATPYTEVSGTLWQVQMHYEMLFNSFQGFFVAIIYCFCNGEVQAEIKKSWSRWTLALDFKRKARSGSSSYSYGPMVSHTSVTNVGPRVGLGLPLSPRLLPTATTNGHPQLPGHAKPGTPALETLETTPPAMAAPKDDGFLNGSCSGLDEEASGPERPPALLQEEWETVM
Text: PTH1R and BMPRII cDNAs were cloned into ECFP-N1, and LRP6 and mLRP4T100 cDNAs were cloned into EYFP—N1 (Clonetech; Palo Alto, Calif.) expression vectors. These vectors were modified by site-directed mutagenesis that prevents the self-dimerization (Bhatia et al., Proc. Natl. Acad. Sci. USA 102:15569-74 (2005)). CFP and YFP were fused at the C-termini of the receptors. Because CFP-PTH1R or CFP-BMPRII (the fluorescent FRET donors) is quenched when in the proximity of YFP-LRP6 or YFP-mLRP4T100 (the acceptors), FRET efficiency can be measured by comparing donor fluorescence pre- and post-photobleaching of the acceptor. […] HEK293 cells on coverslips in 35 mm dishes were cotransfected with 0.1 μg of each plasmid. Cells were observed using Leica TCS SP II AOBS laser-scanning confocal microscope. An excitation wavelength of 405 nm and an emission range of 416-492 nm, and an excitation wavelength of 514 nm and an emission range of 525-600 nm were used to acquire images of CFP and YFP, respectively. YFP was photobleached by using full power of the 514 nm line for 1-2 minutes. An image of CFP and YFP fluorescence after photobleaching was obtained by using the respective filter sets. Images were representatives of three experiments. The FRET efficiencies were calculated according to: FRET eff %=[(Donorpost−Donorpre)/(Donorpost)]

**Q.** Which “stimulation of the TCF/LEF luciferase reporter, treatment alone” value ([1]; 96-well plate) does the source give for Parathyroid hormone [PTH] here?
**A.** Its value is “does not stimulate”.

**Q.** What about the “effect on WNT stimulation of the TCF/LEF luciferase reporter” value ([1]; PTH and WNT3a treatment) of the same substance?
**A.** The value was “potentiates”.

**Q.** What about the “levels of β-catenin in the cytosol” value (β-catenin) of the same substance?
**A.** Its value is “enhanced”.

**Q.** What about the “LRP6-induced secondary axis induction” value (Xenopus) of the same substance?
**A.** Its value is “enhanced”.

**Q.** What about the “binding of axin to LRP6” value (axin-LRP6 binding) of the same substance?
**A.** The value was “rapidly increased”.

**Q.** And the “FRET efficiency between CFP-PTH1R and YFP-LRP6” value (CFP-PTH1R and YFP-LRP6)?
**A.** Its value is “increased”.

**Q.** And the “FRET efficiency in control pairs YFP-LRP6/CFP-BMPRII and CFP-PTH1R/YFP-mLRP4T100” value (CFP-PTH1R and YFP-LRP6)?
**A.** The value was “did not enhance the FRET efficiency”.
